Measurements as given in BigSolDB 2.1.

CCOc1ccc(OCC)cc1
solubility (mole fraction) (in 2-butanone, 278.15 K): 0.077
solubility (mole fraction) (in 2-butanone, 283.15 K): 0.0958
solubility (mole fraction) (in 2-butanone, 288.15 K): 0.113
solubility (mole fraction) (in 2-butanone, 293.15 K): 0.136
solubility (mole fraction) (in 2-butanone, 298.15 K): 0.169
solubility (mole fraction) (in 2-butanone, 303.15 K): 0.204
solubility (mole fraction) (in 2-butanone, 308.15 K): 0.257
solubility (mole fraction) (in 2-butanone, 313.15 K): 0.31
solubility (mole fraction) (in 2-butanone, 318.15 K): 0.406
solubility (mole fraction) (in acetone, 278.15 K): 0.0531
solubility (mole fraction) (in acetone, 283.15 K): 0.0679
solubility (mole fraction) (in acetone, 288.15 K): 0.0839
solubility (mole fraction) (in acetone, 293.15 K): 0.0969
solubility (mole fraction) (in acetone, 298.15 K): 0.12
solubility (mole fraction) (in acetone, 303.15 K): 0.158
solubility (mole fraction) (in acetone, 308.15 K): 0.204
solubility (mole fraction) (in acetone, 313.15 K): 0.263
solubility (mole fraction) (in acetone, 318.15 K): 0.341
solubility (mole fraction) (in acetonitrile, 278.15 K): 0.0204
solubility (mole fraction) (in acetonitrile, 283.15 K): 0.0265
solubility (mole fraction) (in acetonitrile, 288.15 K): 0.0372
solubility (mole fraction) (in acetonitrile, 293.15 K): 0.0498
solubility (mole fraction) (in acetonitrile, 298.15 K): 0.0672
solubility (mole fraction) (in acetonitrile, 303.15 K): 0.102
solubility (mole fraction) (in acetonitrile, 308.15 K): 0.141
solubility (mole fraction) (in acetonitrile, 313.15 K): 0.251
solubility (mole fraction) (in acetonitrile, 318.15 K): 0.473
solubility (mole fraction) (in dimethyl carbonate, 278.15 K): 0.0243
solubility (mole fraction) (in dimethyl carbonate, 283.15 K): 0.0339
solubility (mole fraction) (in dimethyl carbonate, 288.15 K): 0.0537
solubility (mole fraction) (in dimethyl carbonate, 293.15 K): 0.072
solubility (mole fraction) (in dimethyl carbonate, 298.15 K): 0.0994
solubility (mole fraction) (in dimethyl carbonate, 303.15 K): 0.145
solubility (mole fraction) (in dimethyl carbonate, 308.15 K): 0.193
solubility (mole fraction) (in dimethyl carbonate, 313.15 K): 0.25
solubility (mole fraction) (in dimethyl carbonate, 318.15 K): 0.342
solubility (mole fraction) (in ethanol, 278.15 K): 0.00307
solubility (mole fraction) (in ethanol, 283.15 K): 0.00646
solubility (mole fraction) (in ethanol, 288.15 K): 0.00901
solubility (mole fraction) (in ethanol, 293.15 K): 0.0119
solubility (mole fraction) (in ethanol, 298.15 K): 0.0155
solubility (mole fraction) (in ethanol, 303.15 K): 0.0189
solubility (mole fraction) (in ethanol, 308.15 K): 0.0234
solubility (mole fraction) (in ethanol, 313.15 K): 0.031
solubility (mole fraction) (in ethanol, 318.15 K): 0.043
solubility (mole fraction) (in ethyl acetate, 278.15 K): 0.0775
solubility (mole fraction) (in ethyl acetate, 283.15 K): 0.0933
solubility (mole fraction) (in ethyl acetate, 288.15 K): 0.113
solubility (mole fraction) (in ethyl acetate, 293.15 K): 0.145
solubility (mole fraction) (in ethyl acetate, 298.15 K): 0.179
solubility (mole fraction) (in ethyl acetate, 303.15 K): 0.218
solubility (mole fraction) (in ethyl acetate, 308.15 K): 0.264
solubility (mole fraction) (in ethyl acetate, 313.15 K): 0.313
solubility (mole fraction) (in ethyl acetate, 318.15 K): 0.372
solubility (mole fraction) (in ethyl lactate, 278.15 K): 0.0196
solubility (mole fraction) (in ethyl lactate, 283.15 K): 0.0305
solubility (mole fraction) (in ethyl lactate, 288.15 K): 0.0458
solubility (mole fraction) (in ethyl lactate, 293.15 K): 0.0578
solubility (mole fraction) (in ethyl lactate, 298.15 K): 0.0738
solubility (mole fraction) (in ethyl lactate, 303.15 K): 0.0875
solubility (mole fraction) (in ethyl lactate, 308.15 K): 0.109
solubility (mole fraction) (in ethyl lactate, 313.15 K): 0.148
solubility (mole fraction) (in ethyl lactate, 318.15 K): 0.213
solubility (mole fraction) (in isobutyl acetate, 278.15 K): 0.0332
solubility (mole fraction) (in isobutyl acetate, 283.15 K): 0.045
solubility (mole fraction) (in isobutyl acetate, 288.15 K): 0.0655
solubility (mole fraction) (in isobutyl acetate, 293.15 K): 0.0872
solubility (mole fraction) (in isobutyl acetate, 298.15 K): 0.112
solubility (mole fraction) (in isobutyl acetate, 303.15 K): 0.145
solubility (mole fraction) (in isobutyl acetate, 308.15 K): 0.181
solubility (mole fraction) (in isobutyl acetate, 313.15 K): 0.225
solubility (mole fraction) (in isobutyl acetate, 318.15 K): 0.281
solubility (mole fraction) (in methanol, 278.15 K): 0.00207
solubility (mole fraction) (in methanol, 283.15 K): 0.00338
solubility (mole fraction) (in methanol, 288.15 K): 0.00473
solubility (mole fraction) (in methanol, 293.15 K): 0.00666
solubility (mole fraction) (in methanol, 298.15 K): 0.00924
solubility (mole fraction) (in methanol, 303.15 K): 0.0115
solubility (mole fraction) (in methanol, 308.15 K): 0.0158
solubility (mole fraction) (in methanol, 313.15 K): 0.0212
solubility (mole fraction) (in methanol, 318.15 K): 0.0309
solubility (mole fraction) (in methyl acetate, 278.15 K): 0.0544
solubility (mole fraction) (in methyl acetate, 283.15 K): 0.0685
solubility (mole fraction) (in methyl acetate, 288.15 K): 0.0905
solubility (mole fraction) (in methyl acetate, 293.15 K): 0.112
solubility (mole fraction) (in methyl acetate, 298.15 K): 0.145
solubility (mole fraction) (in methyl acetate, 303.15 K): 0.193
solubility (mole fraction) (in methyl acetate, 308.15 K): 0.24
solubility (mole fraction) (in methyl acetate, 313.15 K): 0.29
solubility (mole fraction) (in methyl acetate, 318.15 K): 0.347
solubility (mole fraction) (in n-butyl acetate, 278.15 K): 0.0821
solubility (mole fraction) (in n-butyl acetate, 283.15 K): 0.11
solubility (mole fraction) (in n-butyl acetate, 288.15 K): 0.142
solubility (mole fraction) (in n-butyl acetate, 293.15 K): 0.172
solubility (mole fraction) (in n-butyl acetate, 298.15 K): 0.213
solubility (mole fraction) (in n-butyl acetate, 303.15 K): 0.254
solubility (mole fraction) (in n-butyl acetate, 308.15 K): 0.293
solubility (mole fraction) (in n-butyl acetate, 313.15 K): 0.347
solubility (mole fraction) (in n-butyl acetate, 318.15 K): 0.432
solubility (mole fraction) (in n-propyl acetate, 278.15 K): 0.0586
solubility (mole fraction) (in n-propyl acetate, 283.15 K): 0.0753
solubility (mole fraction) (in n-propyl acetate, 288.15 K): 0.0981
solubility (mole fraction) (in n-propyl acetate, 293.15 K): 0.133
solubility (mole fraction) (in n-propyl acetate, 298.15 K): 0.165
solubility (mole fraction) (in n-propyl acetate, 303.15 K): 0.202
solubility (mole fraction) (in n-propyl acetate, 308.15 K): 0.255
solubility (mole fraction) (in n-propyl acetate, 313.15 K): 0.313
solubility (mole fraction) (in n-propyl acetate, 318.15 K): 0.383
